This is an account of results in patent US12642875B2, “Liposomal nanocarrier delivery system for targeting active CD44 molecule, preparation method therefor, and uses thereof” (Beijing Inno Medicine Co., Ltd., priority 2018, dated 2026).

Data set [1] has as its system ApoE−/− mouse model of arterial vulnerable plaque. Briefly: In vivo therapeutic effect of atorvastatin delivery systems on arterial vulnerable plaques (Experimental Example 4, carotid MRI). The arrangement: species or system mice. Conditions: once every other day, 5 treatments, control progressed by 34.87%. On the procedure:
(§1) Except for the control group of vulnerable plaque model, the treatment group was treated once every other day for a total of 5 treatments. For animals in each group, carotid MRI scans were performed before and after treatment to detect plaque and lumen area, and the percentage of plaque progression was calculated. Percentage of plaque progression=(plaque area after treatment−plaque area before treatment)/lumen area.

Data set [2] has the same test system. The data set is described as follows: In vivo radioisotopic tracing of vulnerable plaque (Experimental Example 8). Conditions: tail vein, tracer 2 mSv/kg, imaging 2 hours after administration. The arrangement: species or system mice. The method, then:
• (1) A normal saline solution of free rosuvastatin was prepared, and the liposome nano delivery systems loaded with radioisotopic tracer and therapeutic agent was prepared by the method described in the above Example 11. • (2) Establishment of ApoE−/− mouse model of arterial vulnerable plaque according to Experimental Example 4. • (3) Trace of vulnerable plaque in experimental animals:
The experimental animals were randomly divided into the following groups, 6 mice in each group: • Free F-FDG group: the dosage of F-FDG was 2 mSv/kg body weight; • LP1-(F-FDG)-OPN group: the dosage of F-FDG was 2 mSv/kg body weight; • LP1-(99mTc)-OPN group: the dosage of 99mTc was 2 mSv/kg body weight; • LP1-(I-131)-OPN group: the dosage of 1-131 was 2 mSv/kg body weight.
Animals in each experimental group were injected with the corresponding tracer through the tail vein, and radioisotopic imaging was performed before administration and 2 hours after administration to observe the identification of atherosclerotic vulnerable plaque in each group.

For data set [3] the test system is unchanged. Briefly: In vivo therapeutic effect of rosuvastatin delivery systems on arterial vulnerable plaques (Experimental Example 3, carotid MRI). The arrangement: species or system mice. The following applies: once every other day, 5 treatments, control progressed by 36.23%. The method, then:
• (1) A normal saline solution of free rosuvastatin was prepared, and the liposome nanocarrier delivery systems loaded with therapeutic agent were prepared by the method described in the above Example 1-3. • (2) Establishment of ApoE−/− mouse model of arterial vulnerable plaque:
SPF-grade ApoE−/− mice (42 mice, 5-6 weeks old, weight 20±1 g) were taken as experimental animals. The mice were fed with an adaptive high-fat diet (fat 10% (w/w), cholesterol 2% (w/w), sodium cholate 0.5% (w/w), and the rest being normal feed for mice) for 4 weeks, and then anaesthetized via intraperitoneal injection of 1% sodium pentobarbital (prepared by adding […] of sodium pentobarbital to 100 ml of normal saline) at a dose of 40 mg/kg. Then, the mice were fixed on the surgical plate in the supine position, disinfected around the neck with 75% (v/v) alcohol, the neck skin was cut longitudinally, and the anterior cervical gland was bluntly separated, and the beating left common carotid artery can be observed on the left side of the trachea. […]
Except for the control group of vulnerable plaque model, the treatment group was treated once every other day for a total of 5 treatments. For animals in each group, carotid MRI scans were performed before and after treatment to detect plaque and lumen area, and the percentage of plaque progression was calculated. […]

The conditions of data set [4]: oral, clinical practice; cited from earlier work.
For data set [5], the system named is ApoE−/− mouse model of arterial vulnerable plaque. Briefly: In vivo therapeutic effect of LP2-(AuNP/R)-OPN on arterial vulnerable plaques (Experimental Example 5, carotid MRI). Further details: species or system mice. Conditions: once every other day, 5 treatments, control progressed by 31.23%. On the procedure:
• (1) A normal saline solution of free rosuvastatin was prepared, and the liposome nano delivery systems loaded with CT tracer and therapeutic agent was prepared by the method described in the above Example 7. • (2) Establishment of ApoE−/− mouse model of arterial vulnerable plaque according to Experimental Example 4. • (3) Trace of vulnerable plaque in experimental animals:
as §1

Data set [6] deals with T1, CD44 on the surface of macrophages inside arterial vulnerable plaques (Mus musculus, UniProt P15379).
T1 construct: from tissue; host or cells: macrophages from inside arterial vulnerable plaques of model mice
T1 sequence (P15379 23-778): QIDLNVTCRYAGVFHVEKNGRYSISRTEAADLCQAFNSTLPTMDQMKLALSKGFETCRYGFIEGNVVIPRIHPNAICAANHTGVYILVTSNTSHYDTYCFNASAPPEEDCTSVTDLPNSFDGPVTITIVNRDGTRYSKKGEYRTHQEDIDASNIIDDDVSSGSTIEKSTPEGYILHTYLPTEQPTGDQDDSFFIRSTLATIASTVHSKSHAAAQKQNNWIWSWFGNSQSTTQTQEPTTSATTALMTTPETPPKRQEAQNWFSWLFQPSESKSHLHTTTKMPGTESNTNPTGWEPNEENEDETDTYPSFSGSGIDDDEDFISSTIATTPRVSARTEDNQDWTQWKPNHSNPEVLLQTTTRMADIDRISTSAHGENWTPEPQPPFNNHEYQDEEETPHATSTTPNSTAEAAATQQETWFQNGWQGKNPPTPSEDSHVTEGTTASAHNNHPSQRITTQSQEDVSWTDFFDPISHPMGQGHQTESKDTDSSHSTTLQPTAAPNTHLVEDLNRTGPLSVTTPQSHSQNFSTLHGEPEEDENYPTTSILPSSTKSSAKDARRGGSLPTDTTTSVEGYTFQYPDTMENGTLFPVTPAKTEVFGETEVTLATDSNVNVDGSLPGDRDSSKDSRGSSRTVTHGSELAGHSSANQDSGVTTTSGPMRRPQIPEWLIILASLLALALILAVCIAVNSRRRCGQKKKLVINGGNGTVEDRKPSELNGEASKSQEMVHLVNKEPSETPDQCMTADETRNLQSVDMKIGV
The data set is described as follows: Binding force integration of amino fluorescein labelled ligand/antibody, flow cytometry MFI, macrophages. Further details: species or system mice. The following applies: macrophages outside the plaque set to 1; labelled ligand/antibody 10 mg/ml, 30 minutes, 37° C. On the procedure: Intraperitoneal macrophages and macrophages inside arterial vulnerable plaques of model mice were taken, and the ligand/antibody labeled with amino fluorescein at a concentration of 10 mg/ml was added, the sample was cultured in DMEM (containing calf serum with a volume fraction of 10%, 100 U/ml penicillin, 100 U/ml streptomycin) at 37° C., in 5% CO2 incubator.
Background: In flow cytometry, cells or beads pass a laser one at a time.

In data set [7] the target is T2, CD44 on the surface of endothelial cells at arterial vulnerable plaques (Mus musculus, UniProt P15379).
T2 construct: from tissue; host or cells: endothelial cells from arterial vulnerable plaques of model mice
T2 sequence (P15379 23-778): T1 sequence (P15379 23-778)
The data set is described as follows: Binding force integration of amino fluorescein labelled ligand/antibody, flow cytometry MFI, endothelial cells. Further details: species or system mice. Conditions: normal cells set to 1; labelled ligand/antibody 10 mg/ml, 30 minutes, 37° C. The method, then:
Endothelial cells at normal arterial vessel walls and endothelial cells at arterial vulnerable plaques of model mice were taken, and the ligand/antibody labeled with amino fluorescein at a concentration of 10 mg/ml was added, the sample was cultured in Dulberic modified Eagle's medium (DMEM) (containing calf serum with a volume fraction of 10%, 100 U/ml penicillin, 100 U/ml streptomycin) at 37° C., in 5% CO2 incubator. After 30 minutes, the mean fluorescence intensity (MFI) was determined by flow cytometry (CytoFLEX, Beckman Coulter, U.S.A.), and the binding force integration of FL-ligand/antibody on the surface of both cells was calculated (the binding force of CD44 of endothelial cells of normal arterial vessel walls to ligand/antibody is set to 1).

Setting [8] is: intragastric, 10 mg rosuvastatin per kg.

On to `CC(C)c1c(C(=O)Nc2ccccc2)c(-c2ccccc2)c(-c2ccc(F)cc2)n1CC[C@@H](O)C[C@@H](O)CC(=O)O` [atorvastatin], for which the “percentage of plaque progression” value was 33.21% in data set [1] (intragastric, 20 mg atorvastatin per kg) and 32.98% in data set [1] (intravenous, 1.2 mg atorvastatin per kg).
`OC[C@H]1OC(O)[C@H]([18F])[C@@H](O)[C@@H]1O` (stereo partly drawn) [free F-FDG, fluorine 18 (18F)-labeled fludeoxyglucose]: the “in vivo tracing effect on arterial vulnerable plaques (radioisotopic imaging)” value in data set [2] is listed as “doesn't show any tracing effect”.
For `CC(C)c1nc(N(C)S(C)(=O)=O)nc(-c2ccc(F)cc2)c1/C=C/[C@@H](O)C[C@@H](O)CC(=O)O` [rosuvastatin], the “percentage of plaque progression” value is recorded as 33.9% in data set [3] (setting [8]); 32.46% in data set [3] (intravenous, 0.66 mg rosuvastatin per kg); 30.9% in data set [5] (setting [8]); 25.34% in data set [5] (intravenous, 0.67 mg rosuvastatin per kg). The “bioavailability when administered orally” value in data set [4] is given as “about 20%”.
Regarding collagen, the “binding force integration of CD44 on the surface of macrophages at vulnerable plaques, relative to macrophages outside the plaque” value in data set [6] was 38 times. Besides, the “binding force integration of CD44 on the surface of endothelial cells at vulnerable plaques, relative to endothelial cells of normal arterial vessel walls” value in data set [7] is on record as 21 times.
As for fibronectin, the “binding force integration of CD44 on the surface of macrophages at vulnerable plaques, relative to macrophages outside the plaque” value in data set [6] is 35 times. The “binding force integration of CD44 on the surface of endothelial cells at vulnerable plaques, relative to endothelial cells of normal arterial vessel walls” value in data set [7] is 18 times.
In the case of hyaluronic acid [HA], in data set [6], the “binding force integration of CD44 on the surface of macrophages at vulnerable plaques, relative to macrophages outside the plaque” value is given as “approximately 40 times”. Moreover, the “binding force integration of CD44 on the surface of endothelial cells at vulnerable plaques, relative to endothelial cells of normal arterial vessel walls” value in data set [7] is reported as “approximately 24 times”.
For the compound laminin, the “binding force integration of CD44 on the surface of macrophages at vulnerable plaques, relative to macrophages outside the plaque” value in data set [6] stood at 37 times. Further, the “binding force integration of CD44 on the surface of endothelial cells at vulnerable plaques, relative to endothelial cells of normal arterial vessel walls” value in data set [7] is 16 times.
Take osteopontin: natural ligand for CD44: the “binding force integration of CD44 on the surface of macrophages at vulnerable plaques, relative to macrophages outside the plaque” value in data set [6] is on record as 33 times. In addition, the “binding force integration of CD44 on the surface of endothelial cells at vulnerable plaques, relative to endothelial cells of normal arterial vessel walls” value in data set [7] is on record as 17 times.
